Legend:
[1] = system: Geobacillus stearothermophilus spores (ATCC 7953); experiment: Fluorescence from enzyme substrates incubated with Geobacillus stearothermophilus spores in culture media; assay type: cell-based; settings: substrate 0.1 mg/mL, 60° C.
[2] = system: Geobacillus stearothermophilus spores (ATCC 7953); experiment: as above; assay type: cell-based; settings: 5×10^3 spores, substrate 0.1 mg/mL, 60° C.; for MEASURED FLUORESCENCE, RFU 10 sec: 360 nm excitation/450 nm emission
Description: Culture media was prepared by dissolving 5 g/L peptone C (BD 211921) and 12 g/L phytone peptone (BD BBL 211906) in deionized water. The pH was adjusted with 1 N NaOH or 0.1 N HCl, the media brought to volume, and then filter sterilized with a 0.22 micron PES filter. Stock solutions ([…]) of 8′-fluoro-4′-methylumbelliferyl-α-D-glucopyranoside, 6′-fluoro-4′-methylumbelliferyl-α-D-glucopyranoside, and 4-methylumbelliferyl-α-D-glucopyranoside were prepared in DMSO. The aforementioned substrates were added to culture media at a final concentration of 0.1 mg/ml and media were then 0.22 μm filter sterilized.
Culture media (pH 6) containing 8′-fluoro-4′-methylumbelliferyl-[…]-D-glucopyranoside (0.1 mg/mL) was added to two wells (100 microliters per well) of a black 96-well microtiter plate with (NUNC #165301, Thermo Fisher Scientific). A 5 microliter aqueous suspension containing 5×10^3 Geobacillus stearothermophilus spores (ATCC 7953) was added to each well of the microtiter plate. Next, the contents of each well were mixed using a multiple aspiration/delivery sequence with the pipet. […] The top of the plate was covered with an optically clear sealing film (product #4311971, Applied Biosystems Corporation, Foster City, California). The plate was warmed at 60° C. and shaken in a linear direction. Fluorescence readings (360 nm excitation/450 nm emission at 50% gain) were taken from the top of the plate. A reading was taken at an initial time point of 10 seconds and then at +1 minute intervals thereafter. A Synergy Neo2 fluorescence plate reader (BioTek Company, Winooski, Vermont) was used. In Table 1, the mean fluorescence values detected (RFU) at times of 10 seconds, +5 minutes, +10 minutes, and +30 minutes are reported. The mean fluorescence values detected for the control wells were 614 RFU at 10 seconds; 547 RFU at +5 minutes; 504 RFU at +10 minutes, and 438 RFU at +30 minutes.
Culture media (pH 7) containing 8′-fluoro-4′-methylumbelliferyl-[…]-D-glucopyranoside (0.1 mg/mL) was added to two wells (100 microliters per well) of a black 96-well microtiter plate with (NUNC #165301, Thermo Fisher Scientific). A 5 microliter aqueous suspension containing 5×10^3 Geobacillus stearothermophilus spores (ATCC 7953) was added to each well of the microtiter plate. Next, the contents of each well were mixed using a multiple aspiration/delivery sequence with the pipet. […] The top of the plate was covered with an optically clear sealing film (product #4311971, Applied Biosystems Corporation). The plate was warmed at 60° C. and shaken in a linear direction. Fluorescence readings (360 nm excitation/450 nm emission at 50% gain) were taken from the top of the plate. A reading was taken at an initial time point of 10 seconds and then at +1 minute intervals thereafter. A Synergy Neo2 fluorescence plate reader (BioTek Company) was used. In Table 2, the mean fluorescence values detected (RFU) at times of 10 seconds, +5 minutes, +10 minutes, and +30 minutes are reported. The mean fluorescence values detected for the control wells were 601 RFU at 10 seconds; 533 RFU at +5 minutes; 495 RFU at +10 minutes, and 430 RFU at +30 minutes.
Culture media (pH 8) containing 8′-fluoro-4′-methylumbelliferyl-[…]-D-glucopyranoside (0.1 mg/mL) was added to two wells (100 microliters per well) of a black 96-well microtiter plate with (NUNC #165301, Thermo Fisher Scientific). A 5 microliter aqueous suspension containing 5×10^3 Geobacillus stearothermophilus spores (ATCC 7953) was added to each well of the microtiter plate. Next, the contents of each well were mixed using a multiple aspiration/delivery sequence with the pipet. […] The top of the plate was covered with an optically clear sealing film (product #4311971, Applied Biosystems Corporation). The plate was warmed at 60° C. and shaken in a linear direction. Fluorescence readings (360 nm excitation/450 nm emission at 50% gain) were taken from the top of the plate. […]

[3] = pH 6 culture media, 5×10^3 spores
[4] = pH 6 culture media, 5×10^6 spores
[5] = pH 7 culture media, 5×10^3 spores
[6] = pH 7 culture media, 5×10^6 spores
[7] = pH 8 culture media, 5×10^3 spores
[8] = pH 8 culture media, 5×10^6 spores
[9] = pH 9 culture media, 5×10^3 spores
[10] = pH 9 culture media, 5×10^6 spores

Structure (SMILES) | MEASURED FLUORESCENCE, RFU +5 min [1, 3] [RFU] | MEASURED FLUORESCENCE, RFU +30 min [1, 3] [RFU] | MEASURED FLUORESCENCE, RFU 10 sec [1, 4] [RFU] | MEASURED FLUORESCENCE, RFU +5 min [1, 4] [RFU] | MEASURED FLUORESCENCE, RFU +10 min [1, 4] [RFU] | MEASURED FLUORESCENCE, RFU +30 min [1, 4] [RFU] | MEASURED FLUORESCENCE, RFU 10 sec [1, 5] [RFU] | MEASURED FLUORESCENCE, RFU 10 sec [1, 6] [RFU] | MEASURED FLUORESCENCE, RFU +5 min [1, 6] [RFU] | MEASURED FLUORESCENCE, RFU +10 min [1, 6] [RFU] | MEASURED FLUORESCENCE, RFU +30 min [1, 6] [RFU] | MEASURED FLUORESCENCE, RFU 10 sec [1, 7] [RFU] | MEASURED FLUORESCENCE, RFU +5 min [1, 7] [RFU] | MEASURED FLUORESCENCE, RFU +10 min [1, 7] [RFU] | MEASURED FLUORESCENCE, RFU 10 sec [1, 8] [RFU] | MEASURED FLUORESCENCE, RFU +5 min [1, 8] [RFU] | MEASURED FLUORESCENCE, RFU +10 min [1, 8] [RFU] | MEASURED FLUORESCENCE, RFU +30 min [1, 8] [RFU] | MEASURED FLUORESCENCE, RFU 10 sec [1, 9] [RFU] | MEASURED FLUORESCENCE, RFU +5 min [1, 9] [RFU] | other results
Cc1cc(=O)oc2c(F)c(O[C@H]3O[C@H](CO)[C@@H](O)[C@H](O)[C@H]3O)ccc12 [Example 1, 8′-Fluoro-4′-methylumbelliferyl […]-D-glucopyranoside] | 1212 | 5600 | 30514 | 34348 | 32547 | 30518 | 886 | 49649 | 54906 | 52619 | 49458 | 729 | 971 | 1655 | 39958 | 58746 | 58909 | 55069 | 655 | 663 | MEASURED FLUORESCENCE, RFU +10 min [1, 9]: 831 RFU; MEASURED FLUORESCENCE, RFU +30 min [1, 9]: 2910 RFU; MEASURED FLUORESCENCE, RFU 10 sec [1, 10]: 15513 RFU; MEASURED FLUORESCENCE, RFU +5 min [1, 10]: 39862 RFU; MEASURED FLUORESCENCE, RFU +10 min [1, 10]: 55056 RFU; MEASURED FLUORESCENCE, RFU +30 min [1, 10]: 52276 RFU; MEASURED FLUORESCENCE, RFU 10 sec ([2]; pH 6 culture media): 806 RFU; MEASURED FLUORESCENCE, RFU +10 min ([2]; pH 6 culture media): 1909 RFU; MEASURED FLUORESCENCE, RFU +5 min ([2]; pH 7 culture media): 1474 RFU; MEASURED FLUORESCENCE, RFU +10 min ([2]; pH 7 culture media): 2681 RFU; MEASURED FLUORESCENCE, RFU +30 min ([2]; pH 7 culture media): 10190 RFU; MEASURED FLUORESCENCE, RFU +30 min ([2]; pH 8 culture media): 7477 RFU
Cc1cc(=O)oc2cc(O[C@H]3O[C@H](CO)[C@@H](O)[C@H](O)[C@H]3O)c(F)cc12 [Example 6F-MUG, 6′-Fluoro-4′-methylumbelliferyl […]-D-glucopyranoside] | 1200 | 6663 | 53357 | 60972 | 58039 | 55966 | 879 | 67489 | 80834 | 78888 | 75469 | 825 | 878 | 1204 | 49967 | 81623 | 85491 | 78890 | 870 | 833 | MEASURED FLUORESCENCE, RFU +10 min [1, 9]: 892 RFU; MEASURED FLUORESCENCE, RFU +30 min [1, 9]: 2376 RFU; MEASURED FLUORESCENCE, RFU 10 sec [1, 10]: 22519 RFU; MEASURED FLUORESCENCE, RFU +5 min [1, 10]: 56806 RFU; MEASURED FLUORESCENCE, RFU +10 min [1, 10]: 78179 RFU; MEASURED FLUORESCENCE, RFU +30 min [1, 10]: 76196 RFU; MEASURED FLUORESCENCE, RFU 10 sec ([2]; pH 6 culture media): 886 RFU; MEASURED FLUORESCENCE, RFU +10 min ([2]; pH 6 culture media): 1903 RFU; MEASURED FLUORESCENCE, RFU +5 min ([2]; pH 7 culture media): 1130 RFU; MEASURED FLUORESCENCE, RFU +10 min ([2]; pH 7 culture media): 1855 RFU; MEASURED FLUORESCENCE, RFU +30 min ([2]; pH 7 culture media): 8708 RFU; MEASURED FLUORESCENCE, RFU +30 min ([2]; pH 8 culture media): 5638 RFU
